Drawing on article PMC8799717, “Pharmacological targeting PIKfyve and tubulin as an effective treatment strategy for double-hit lymphoma” (Cell Death Discovery, 2022), this text covers remaining binding for 1 compound.

The target in one assay is DDR2 (Homo sapiens, UniProt Q16832). Kind of assay: KINOMEscan competition binding, single dose […]. Conditions: read-out: % of control at 1 μM.
The target of a further assay is LCK (Homo sapiens, UniProt P06239). In words: KINOMEscan competition binding, single dose […]. Conditions: read-out: % of control at 1 μM.
The next assay addresses KIT (Homo sapiens, UniProt P10721). Kind of assay: KINOMEscan competition binding, single dose […]. The note with it: read-out: % of control at 1 μM.
The target of the next assay is RAF1 (Homo sapiens, UniProt P04049). Kind of assay: KINOMEscan competition binding, single dose […]. The note with it: read-out: % of control at 1 μM.
The target of a further assay is DYRK1B (Homo sapiens, UniProt Q9Y463). Kind of assay: biochemical. Details: KINOMEscan active-site-directed competition binding panel, 468 kinases, percent of DMSO control at 1 uM. Conditions: KINOMEscan binding, percent of DMSO control; read-out: Ctrl%.
The target of another assay is LTK (Homo sapiens, UniProt P29376). Kind of assay: biochemical. Details: KINOMEscan active-site-directed competition binding panel, 468 kinases, percent of DMSO control at 1 uM. Conditions: KINOMEscan binding, percent of DMSO control; read-out: Ctrl%.
A further assay addresses STK33 (Homo sapiens, UniProt Q9BYT3). In words: biochemical. Details: KINOMEscan active-site-directed competition binding panel, 468 kinases, percent of DMSO control at 1 uM. Conditions: KINOMEscan binding, percent of DMSO control; read-out: Ctrl%.
The next assay deals with ACVR2B (Homo sapiens, UniProt Q13705). Kind of assay: biochemical. More on the design: KINOMEscan active-site-directed competition binding panel, 468 kinases, percent of DMSO control at 1 uM. The note with it: KINOMEscan binding, percent of DMSO control; read-out: Ctrl%.
The next assay has as its target PIK3CA(H1047Y) (Homo sapiens, UniProt P42336, H1047Y). In words: biochemical. Conditions: KINOMEscan binding, percent of DMSO control; read-out: Ctrl%. Details: KINOMEscan active-site-directed competition binding panel, 468 kinases, percent of DMSO control at 1 uM.
The target of a further assay is EPHA8 (Homo sapiens, UniProt P29322). Kind of assay: KINOMEscan competition binding, single dose […]. Conditions: read-out: % of control at 1 μM.
Chain of EPHA8 (P29322 28-1005): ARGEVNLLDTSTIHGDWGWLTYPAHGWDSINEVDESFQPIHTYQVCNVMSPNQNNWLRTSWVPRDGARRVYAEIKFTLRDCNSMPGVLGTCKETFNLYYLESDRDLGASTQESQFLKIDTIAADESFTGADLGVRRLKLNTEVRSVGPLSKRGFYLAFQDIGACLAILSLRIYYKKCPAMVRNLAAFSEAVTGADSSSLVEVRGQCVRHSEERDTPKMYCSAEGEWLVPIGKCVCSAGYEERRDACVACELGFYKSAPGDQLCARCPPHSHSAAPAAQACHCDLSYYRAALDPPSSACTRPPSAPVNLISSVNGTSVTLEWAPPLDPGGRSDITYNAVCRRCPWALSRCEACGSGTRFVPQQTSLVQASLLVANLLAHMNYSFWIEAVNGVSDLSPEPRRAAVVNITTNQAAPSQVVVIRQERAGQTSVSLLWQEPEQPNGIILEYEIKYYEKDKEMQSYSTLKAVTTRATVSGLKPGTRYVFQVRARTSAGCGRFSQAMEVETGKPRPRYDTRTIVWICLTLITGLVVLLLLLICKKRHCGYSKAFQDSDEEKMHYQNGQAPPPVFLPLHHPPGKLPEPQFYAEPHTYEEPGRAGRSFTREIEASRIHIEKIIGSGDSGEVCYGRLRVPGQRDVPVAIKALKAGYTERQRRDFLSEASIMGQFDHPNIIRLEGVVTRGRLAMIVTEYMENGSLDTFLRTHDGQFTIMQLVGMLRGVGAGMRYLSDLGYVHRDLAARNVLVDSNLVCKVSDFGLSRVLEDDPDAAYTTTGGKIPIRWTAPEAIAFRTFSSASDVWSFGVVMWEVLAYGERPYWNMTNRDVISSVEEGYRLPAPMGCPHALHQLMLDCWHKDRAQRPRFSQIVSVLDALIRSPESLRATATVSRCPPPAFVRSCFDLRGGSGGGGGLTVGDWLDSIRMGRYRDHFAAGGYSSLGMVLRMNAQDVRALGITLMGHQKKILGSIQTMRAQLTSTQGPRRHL

Chain of LCK (P06239 2-509): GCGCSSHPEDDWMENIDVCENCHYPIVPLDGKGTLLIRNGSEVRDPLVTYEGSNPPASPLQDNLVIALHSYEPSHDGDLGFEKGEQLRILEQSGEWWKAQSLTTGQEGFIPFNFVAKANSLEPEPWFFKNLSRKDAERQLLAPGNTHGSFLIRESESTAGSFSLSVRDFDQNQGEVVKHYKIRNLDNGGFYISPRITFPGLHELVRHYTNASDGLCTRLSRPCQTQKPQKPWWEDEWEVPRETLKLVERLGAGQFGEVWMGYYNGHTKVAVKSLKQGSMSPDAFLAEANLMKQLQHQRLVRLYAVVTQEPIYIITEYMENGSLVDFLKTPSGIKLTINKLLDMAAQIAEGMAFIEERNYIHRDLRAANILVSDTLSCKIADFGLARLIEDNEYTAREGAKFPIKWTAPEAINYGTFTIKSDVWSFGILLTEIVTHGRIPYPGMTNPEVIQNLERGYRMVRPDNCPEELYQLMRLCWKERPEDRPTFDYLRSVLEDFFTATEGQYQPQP
Chain of DDR2 (Q16832 22-855): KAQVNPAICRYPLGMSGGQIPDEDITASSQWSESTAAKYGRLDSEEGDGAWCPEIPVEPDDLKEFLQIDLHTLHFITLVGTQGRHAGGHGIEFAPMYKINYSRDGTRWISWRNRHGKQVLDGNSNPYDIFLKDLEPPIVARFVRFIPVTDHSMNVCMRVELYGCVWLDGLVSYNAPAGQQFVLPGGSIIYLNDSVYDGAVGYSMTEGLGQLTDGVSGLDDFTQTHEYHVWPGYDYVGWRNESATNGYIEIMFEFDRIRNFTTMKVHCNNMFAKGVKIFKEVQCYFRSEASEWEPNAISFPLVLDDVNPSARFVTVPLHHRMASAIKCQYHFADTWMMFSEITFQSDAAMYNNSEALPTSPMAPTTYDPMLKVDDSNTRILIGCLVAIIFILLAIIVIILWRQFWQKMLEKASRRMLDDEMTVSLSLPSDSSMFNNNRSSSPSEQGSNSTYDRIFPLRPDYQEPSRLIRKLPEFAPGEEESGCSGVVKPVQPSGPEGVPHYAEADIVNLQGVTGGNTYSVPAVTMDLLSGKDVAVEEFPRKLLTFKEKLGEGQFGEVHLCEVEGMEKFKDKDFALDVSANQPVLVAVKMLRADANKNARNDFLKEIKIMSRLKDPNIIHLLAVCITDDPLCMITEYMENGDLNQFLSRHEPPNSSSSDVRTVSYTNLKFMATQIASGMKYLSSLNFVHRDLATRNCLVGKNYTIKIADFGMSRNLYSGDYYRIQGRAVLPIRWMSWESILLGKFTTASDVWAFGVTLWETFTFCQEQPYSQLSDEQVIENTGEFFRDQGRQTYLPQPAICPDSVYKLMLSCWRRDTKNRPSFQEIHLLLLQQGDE
Chain of RAF1 (P04049 whole entry): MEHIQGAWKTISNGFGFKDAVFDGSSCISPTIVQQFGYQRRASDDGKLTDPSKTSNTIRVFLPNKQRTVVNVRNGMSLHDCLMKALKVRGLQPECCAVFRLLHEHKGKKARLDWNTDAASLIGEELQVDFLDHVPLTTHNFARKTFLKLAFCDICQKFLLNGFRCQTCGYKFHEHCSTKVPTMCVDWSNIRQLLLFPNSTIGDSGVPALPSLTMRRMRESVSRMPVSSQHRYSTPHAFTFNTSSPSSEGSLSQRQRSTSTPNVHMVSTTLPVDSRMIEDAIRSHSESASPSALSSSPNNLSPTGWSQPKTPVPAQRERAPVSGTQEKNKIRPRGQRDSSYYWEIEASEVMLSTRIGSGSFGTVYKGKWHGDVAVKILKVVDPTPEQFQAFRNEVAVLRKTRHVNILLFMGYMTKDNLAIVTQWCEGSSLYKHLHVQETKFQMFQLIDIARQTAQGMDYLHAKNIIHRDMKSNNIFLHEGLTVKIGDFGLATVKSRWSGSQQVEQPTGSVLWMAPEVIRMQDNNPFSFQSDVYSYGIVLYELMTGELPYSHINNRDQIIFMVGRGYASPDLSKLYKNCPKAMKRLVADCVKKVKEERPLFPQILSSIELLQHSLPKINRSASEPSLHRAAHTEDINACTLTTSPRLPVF
Chain of LTK (P29376 whole entry): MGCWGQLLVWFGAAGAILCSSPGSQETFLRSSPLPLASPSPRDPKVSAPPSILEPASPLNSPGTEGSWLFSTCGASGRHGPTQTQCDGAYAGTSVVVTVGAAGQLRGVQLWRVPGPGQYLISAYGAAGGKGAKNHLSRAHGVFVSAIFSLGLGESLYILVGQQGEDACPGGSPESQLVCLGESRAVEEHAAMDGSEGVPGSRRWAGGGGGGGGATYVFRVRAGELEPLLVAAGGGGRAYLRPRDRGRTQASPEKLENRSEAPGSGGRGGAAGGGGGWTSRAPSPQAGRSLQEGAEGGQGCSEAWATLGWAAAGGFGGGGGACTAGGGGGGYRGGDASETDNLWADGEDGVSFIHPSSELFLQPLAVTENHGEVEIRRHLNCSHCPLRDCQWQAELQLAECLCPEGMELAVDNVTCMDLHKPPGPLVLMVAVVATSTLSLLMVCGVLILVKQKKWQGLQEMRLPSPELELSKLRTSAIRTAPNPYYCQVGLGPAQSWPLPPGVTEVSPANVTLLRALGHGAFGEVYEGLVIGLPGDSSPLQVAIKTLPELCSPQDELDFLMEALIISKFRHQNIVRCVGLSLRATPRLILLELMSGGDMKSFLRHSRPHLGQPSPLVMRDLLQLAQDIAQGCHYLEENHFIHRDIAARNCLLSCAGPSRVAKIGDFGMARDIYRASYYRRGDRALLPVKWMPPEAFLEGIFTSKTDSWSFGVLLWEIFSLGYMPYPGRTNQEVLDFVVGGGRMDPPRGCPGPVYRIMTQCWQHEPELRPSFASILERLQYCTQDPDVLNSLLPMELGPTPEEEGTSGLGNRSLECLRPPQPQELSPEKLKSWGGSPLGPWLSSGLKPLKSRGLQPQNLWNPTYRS
Chain of ACVR2B (Q13705 whole entry): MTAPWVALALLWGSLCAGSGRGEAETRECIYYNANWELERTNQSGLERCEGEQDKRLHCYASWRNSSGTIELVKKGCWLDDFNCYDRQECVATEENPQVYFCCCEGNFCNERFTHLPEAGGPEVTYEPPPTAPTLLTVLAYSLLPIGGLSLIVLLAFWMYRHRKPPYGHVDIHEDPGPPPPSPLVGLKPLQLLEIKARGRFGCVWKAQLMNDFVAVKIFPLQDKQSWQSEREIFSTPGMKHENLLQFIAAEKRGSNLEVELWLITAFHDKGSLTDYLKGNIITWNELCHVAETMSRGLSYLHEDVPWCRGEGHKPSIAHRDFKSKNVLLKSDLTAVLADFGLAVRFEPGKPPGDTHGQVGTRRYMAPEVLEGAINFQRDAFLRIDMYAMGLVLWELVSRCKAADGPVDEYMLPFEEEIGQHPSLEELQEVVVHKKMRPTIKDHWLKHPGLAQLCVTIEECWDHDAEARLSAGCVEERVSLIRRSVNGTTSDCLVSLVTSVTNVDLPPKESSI
Chain of STK33 (Q9BYT3 whole entry): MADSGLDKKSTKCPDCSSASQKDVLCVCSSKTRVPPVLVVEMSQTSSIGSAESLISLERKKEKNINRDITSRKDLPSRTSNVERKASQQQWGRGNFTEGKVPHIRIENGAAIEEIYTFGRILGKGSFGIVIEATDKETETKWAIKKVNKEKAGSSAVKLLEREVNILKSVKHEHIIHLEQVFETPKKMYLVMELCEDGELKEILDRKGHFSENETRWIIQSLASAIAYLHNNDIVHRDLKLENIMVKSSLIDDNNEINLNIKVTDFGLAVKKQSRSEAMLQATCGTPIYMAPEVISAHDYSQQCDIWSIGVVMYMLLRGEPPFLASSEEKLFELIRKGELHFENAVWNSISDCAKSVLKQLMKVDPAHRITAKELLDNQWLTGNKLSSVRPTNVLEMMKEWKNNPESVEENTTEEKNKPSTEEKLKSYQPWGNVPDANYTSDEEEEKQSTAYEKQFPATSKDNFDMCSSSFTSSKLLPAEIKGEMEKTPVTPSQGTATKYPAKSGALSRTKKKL

`Cc1ccc(NC(=O)c2cccc(C(F)(F)F)c2)cc1Nc1cc(-c2cccnc2)nc2[nH]ccc12` [HZX-02-059]: the remaining binding at 1 µM at DDR2 came to 0%; at LCK it was 0.9%; at KIT it was 1.2%; on RAF1 it was 0.95%; on DYRK1B, 97%; on LTK, 79%. For the same compound, the remaining binding at 1 µM is 94% on STK33, 71% on ACVR2B, 88% on PIK3CA(H1047Y) and 0.5% on EPHA8.
